Test results from patent publication US20250325793A1, “INTRACALVARIOSSEOUS DRUG ADMINISTRATION DEVICE FOR DELIVERING DRUG BY BYPASSING BLOOD-BRAIN BARRIER” (GACHON UNIVERSITY OF INDUSTRY-ACADEMIC COOPERATION …, priority 2023, published 2025).
Structures can show the parent of a compound that is named as a salt.

How the values were obtained:
[1] = Plasma, brain interstitial fluid (microdialysis) and whole-brain drug levels after intravenous (IV) and intracalvariosseous (ICO) administration; type: in vivo, rat; conditions: for AUCISF of the ICO administration group compared with the IV administration group: brain interstitial fluid (microdialysis, right hippocampus); for AUCplasma of the ICO administration group compared with the IV administration group: rat plasma; for Cbr (brain drug concentration), ICO administration group relative to IV administration group: whole brain at 24 hours after administration; for Cbr (brain drug concentration), ICO administration group relative to IV administration group / brain-to-plasma ratio (Kp), ICO administration group relative to IV administration group: fold higher in ICO (5 mg/kg) than IV (0.5 mg/kg); for brain-to-plasma ratio (Kp), ICO administration group relative to IV administration group: at 24 hours after administration
Description: The experiment was performed with 5-week-old male rats weighing […]. To ensure statistical independence, only male rats were used in each experiment.
Eight rats were randomly assigned to the IV and ICO administration groups for each compound and were administered continuously from the next day (n=4).
In order to perform the experiment, the drug administration device of the present disclosure should be installed on the rats in the ICO administration group, and a guide cannula for a microdialysis probe for measuring the concentration of drugs in the brain should be installed on the rats in both the ICO administration group and the IV administration group.
As illustrated in FIG. 9 and FIG. 10, the drug administration device was installed on the left side of the skull of the rats in the ICO administration group, and the guide cannula was installed on the right side, while only the guide cannula was implanted in the skull of the IV administration group.
Then, in order to implant the microdialysis guide cannula, the rats in the ICO and IV administration groups were anesthetized with isoflurane, and a small hole was drilled in the skull, and the guide cannula was inserted into the right hippocampus (see FIGS. 9 and 10). The inserted guide cannula was fixed with dental cement, and the skin wound was sutured, and then the rats were allowed to recover from the surgery in the cage for one day.
Before the drug administration, the membrane of the microdialysis probe was soaked in ethanol and artificial cerebrospinal fluid (aCSF) buffer was perfused through the microdialysis probe at a flow rate of 0.5 μl/min for 1 hour for stabilization.
In addition, the ICO administration group was administered at a dose of 5 mg/kg by filling the drug into the receiving portion 100 of the drug administration device.
The perfusate of the microdialysis probe was collected every 30 minutes for […] between 8 and 24 hours after administration.
The dialysate samples were stored at […] until the time of LC-MS/MS analysis (tandem mass spectrometry).
Blood samples were immediately centrifuged at 10,000 rpm for 10 minutes at 4° C. to recover plasma. In the case of TMZ, blood samples collected after administration were immediately centrifuged and then 10 μl of plasma was acidified with 2 μl of 0.1% formic acid.
Brains were excised 24 hours after administration, and PBS (phosphate buffer saline) corresponding to the weight of each tissue sample was added, followed by homogenization using a homogenizer.
Plasma and homogenized brain tissue samples were stored at […] until LC-MS/MS analysis.
The areas under the curve in plasma (AUCplasma) and interstitial fluid (ISF) concentration-time curves (AUCISF) were determined by noncompartmental analysis using WinNonlin 2.1. Brain concentration (Cbr) in the whole brain at 24 hours was corrected for the plasma volume of the corresponding organ using the Expression below, which was determined using LC-MS/MS.
In the above Expression, Cbr, quant, 24 h is the brain drug concentration (ng/g) at 24 hours quantified by LC-MS/MS, V0 is the plasma volume of the corresponding organ (μl/g), Cplasma, 24 h at 24 hours is the plasma concentration (ng/ml), and the V0 value for the brain was selected as 9.3±1.1 μl/g.
Compared to IV administration, the extent of brain uptake after ICO administration was expressed as brain availability (Fbr), which is similar to systemic bioavailability (F), and was calculated as the ratio of AUCISF, IV and AUCISF, ICO using the Expression below.
In the above Expression, AUCISF,ICO and AUCISF,IV are the areas under the curves in the brain interstitial fluid-time plot (AUCISF) up to 24 hours after ICO administration and IV administration, respectively.

[2] = Near-infrared (NIR) fluorescence imaging of ICG diffusion in the skull after administration through the installed device; type: in vivo, rat; conditions: 24 hours after 50 μl of ICG (500 μg/ml in saline), NIR fluorescence image
Description: Next, the integrity of the drug administration device installed in the skull of the rat was tested by near-infrared (NIR) fluorescence imaging using indocyanine green (IGC).
The diffusion of ICG into the rat skull was observed by the near-infrared fluorescence imaging of the drug administration device installed in the thinned rat skull.
50 μl of ICG (500 μg/ml in saline) was administered to the rat with the drug administration device installed. After 24 hours, the rat was anesthetized, placed in a stereotaxic position, and the scalp was cut. For the ICG-NIR fluorescence imaging, a 780 nm laser with 150 mW output was set at a distance of 80 mm and an angle of 20° from the target through a C-clamp on a Z stand for a laser spot size of 15 mm width and 25 mm length, and fluorescence images were recorded at 1 frame per second using basedcam2 software while NIR light was administered through the 780 nm laser.

[3] = up to 24 h, ICO 5 mg/kg vs IV 0.5 mg/kg

Row | SMILES | AUCISF of the ICO administration group compared with the IV administration group [1, 3] | AUCISF after ICO administration ([1]; ICO 5 mg/kg, brain interstitial fluid, up to 24 h) [ng/min/mL] | ISF concentration after IV administration ([1]; IV 0.5 mg/kg, all time points, brain interstitial fluid) | AUCplasma of the ICO administration group compared with the IV administration group [1, 3] | Cbr (brain drug concentration), ICO administration group relative to IV administration group [1] [times] | ICG signal in the left skull where the drug administration device was installed [2] | ICG signal in the right skull [2] | brain-to-plasma ratio (Kp), ICO administration group relative to IV administration group [1] [times] | AUC ratio (%, AUCISF/AUCplasma), ICO administration group relative to IV administration group ([1]; fold higher in ICO than IV group, ICO 5 mg/kg vs IV 0.5 mg/kg) [times]
1 | CCN(C)C(=O)Oc1cccc([C@H](C)N(C)C)c1.O=C(O)C(O)C(O)C(=O)O [RVG, rivastigmine i-tartrates] | relatively higher | – | – | – | – | – | – | – | –
2 | CC(=O)O[C@H]1C(=O)[C@@]2(C)[C@H]([C@H](OC(=O)c3ccccc3)[C@]3(O)C[C@H](OC(=O)[C@H](O)[C@@H](NC(=O)c4ccccc4)c4ccccc4)C(C)=C1C3(C)C)[C@]1(OC(C)=O)CO[C@@H]1C[C@@H]2O [PTX, paclitaxel] | relatively higher | 796.55 | below the limit of detection (LOD) | relatively lower | 294.1 | – | – | – | –
3 | CC1(C)C(/C=C/C=C/C=C/C=C2\N(CCCCS(=O)(=O)O)c3ccc4ccccc4c3C2(C)C)=[N+](CCCCS(=O)(=O)[O-])c2ccc3ccccc3c21 [ICG, indocyanine green] | – | – | – | – | – | brightly lit | no signal was observed | – | –
4 | Cc1nc2n(c(=O)c1CCN1CCC(c3noc4cc(F)ccc34)CC1)CCCC2 [RIS, risperidone] | relatively higher | – | – | relatively lower | – | – | – | – | –
5 | CN(C)CCCN1c2ccccc2Sc2ccc(Cl)cc21 [CPZ, Chlorpromazine hydrochloride] | no different | – | – | relatively lower | 85.1 | – | – | 35.3 | –

Further lines, results first:

Row | AUCISF of the ICO administration group compared with the IV administration group [1, 3] | AUCISF after ICO administration ([1]; ICO 5 mg/kg, brain interstitial fluid, up to 24 h) [ng/min/mL] | ISF concentration after IV administration ([1]; IV 0.5 mg/kg, all time points, brain interstitial fluid) | AUCplasma of the ICO administration group compared with the IV administration group [1, 3] | Cbr (brain drug concentration), ICO administration group relative to IV administration group [1] [times] | ICG signal in the left skull where the drug administration device was installed [2] | ICG signal in the right skull [2] | brain-to-plasma ratio (Kp), ICO administration group relative to IV administration group [1] [times] | AUC ratio (%, AUCISF/AUCplasma), ICO administration group relative to IV administration group ([1]; fold higher in ICO than IV group, ICO 5 mg/kg vs IV 0.5 mg/kg) [times] | SMILES
6 | relatively higher | – | – | relatively lower | 3.1 | – | – | 3.4 | – | [2H]C([2H])(N)C([2H])([2H])C([2H])([2H])C(=O)O [GABA, gamma-aminobutyric acid-d6]
7 | relatively higher | – | – | relatively lower | 3.4 | – | – | 1.9 | 3.0 | Cn1nnc2c(C(N)=O)ncn2c1=O [TMZ, temozolomide]
